# Legend:
# PPARα-RXRα heterodimer = target: T1, PPARα-RXRα heterodimer (Homo sapiens, UniProt Q07869); test: PPARα-RXRα heterodimer ligand activity (luciferase reporter, transfected COS-1 cells); format: cell-based; settings: luciferase activity at 10 nM compound relative to control without compound as 1
# T1 construct: expressed in transfected cells; host or cells: COS-1 (transient; pMCMVneo-hPPARα + pMCMVneo-hRXRα)
# T1 sequence (Q07869 1-468): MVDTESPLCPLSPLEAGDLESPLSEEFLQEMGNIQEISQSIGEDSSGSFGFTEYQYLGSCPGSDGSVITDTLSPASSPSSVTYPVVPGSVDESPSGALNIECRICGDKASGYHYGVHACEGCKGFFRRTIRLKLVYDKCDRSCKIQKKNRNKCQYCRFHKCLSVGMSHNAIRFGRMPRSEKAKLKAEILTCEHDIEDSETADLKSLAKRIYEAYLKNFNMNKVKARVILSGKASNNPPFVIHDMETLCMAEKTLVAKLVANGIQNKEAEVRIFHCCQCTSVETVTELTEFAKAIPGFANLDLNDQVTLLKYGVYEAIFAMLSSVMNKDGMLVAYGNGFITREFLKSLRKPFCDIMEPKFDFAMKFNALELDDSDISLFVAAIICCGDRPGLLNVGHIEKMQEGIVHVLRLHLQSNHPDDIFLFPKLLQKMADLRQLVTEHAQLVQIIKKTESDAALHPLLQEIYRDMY
# T1 sequence (P19793 1-462 partner): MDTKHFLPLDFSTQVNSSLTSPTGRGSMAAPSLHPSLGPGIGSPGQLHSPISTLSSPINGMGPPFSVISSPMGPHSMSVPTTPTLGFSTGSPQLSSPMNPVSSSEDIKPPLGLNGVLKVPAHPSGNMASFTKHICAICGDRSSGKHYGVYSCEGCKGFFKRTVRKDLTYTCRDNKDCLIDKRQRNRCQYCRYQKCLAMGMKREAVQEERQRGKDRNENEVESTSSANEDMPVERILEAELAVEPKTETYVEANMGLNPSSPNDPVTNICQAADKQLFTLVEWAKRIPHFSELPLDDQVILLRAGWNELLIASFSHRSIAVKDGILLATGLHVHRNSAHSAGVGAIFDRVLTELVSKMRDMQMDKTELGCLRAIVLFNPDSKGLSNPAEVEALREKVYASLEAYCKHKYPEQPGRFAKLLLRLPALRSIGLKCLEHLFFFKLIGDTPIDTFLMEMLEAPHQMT
# Procedure: (§1) At 18 to 24 hours after transfection carried out in Reference Example 12a, COS-1 cells were collected, suspended in DMEM medium [manufactured by Life Technologies, Inc., USA] containing 0.1% BSA (fatty acid-free) (produced by Waco Pure Chemicals Industries, Ltd.), and inoculated to each well of a 96-well white plate (produced by Corning, USA) at 1×10^4 cells/well in 80 μl. Subsequently, 20 μl of a test compound was added, and the plate was incubated at 37° C. in a carbon dioxide gas incubator for 36 to 48 hours. After removal of the medium from the 96-well white plate, 40 μl of PicaGene LT 7.5 (produced by Waco Pure Chemicals Industries, Ltd.) diluted twofold with HBSS (HANKS' BALANCED SALT SOLUTION) (produced by BIO WHITTAKER) was added, and after stirring, the luciferase activity was determined using 1420 ARVO Multilabel Counter [produced by Wallac].
# The fold induction was calculated from the luciferase activity for the well to which 10 nM of the compound is added, relative to the luciferase activity of a control to which the compound is not added as 1. Results are shown in [Table 3].
# (§2) A COS-1 cell was inoculated in a cell culture flask (produced by Corning, USA) of 150 cm^2 at 5×10^6 cells/50 ml, and incubated under the conditions of 37° C. and 5% CO2 for 24 hours. Transfection was carried out with lipofectamine (produced by Invitrogen, USA). A transfection mixture solution was prepared by mixing 125 μl of lipofectamine, 100 μl of PLUS Reagent, 2.5 μg of pMCMVneo-hPPARα (obtained in Reference Example 11a), 2.5 μg of pMCMVneo-hRXRα (obtained in Reference Example 4a), 5 μg of reporter plasmid pGL3-4ERPP-TK neo (obtained in Reference Example 5a) and 5 μg of pRL-tk [produced by Promega, USA] with 5 ml of opti-MEM (produced by Invitrogen, USA). To COS-1 cell washed with opti-MEM, the above-mentioned transfection mixture solution and 20 ml of opti-MEM were added, and then incubated under the conditions of 37° C. and 5% CO2 for 3 hours. Then, 25 ml of DMEM medium [manufactured by Life Technologies, Inc., USA] containing 0.1% fatty acid-free bovine serum albumin (BSA) (produced by Waco Pure Chemicals Industries, Ltd.) was added thereto, and then incubated under the conditions of 37° C. and 5% CO2 for 18 to 24 hours.
# human GPR40 = target: T2, human GPR40 (Homo sapiens, UniProt O14842); test: Receptor function regulating action (agonist action) for GPR40, intracellular calcium by FLIPR in CHO cells; format: cell-based; settings: CHO cells expressing human GPR40; change of fluorescence intensity at 30 seconds after reaction initiation
# T2 construct: expressed in transfected cells; host or cells: CHO cell strain (No. 104)
# T2 sequence (O14842 whole entry): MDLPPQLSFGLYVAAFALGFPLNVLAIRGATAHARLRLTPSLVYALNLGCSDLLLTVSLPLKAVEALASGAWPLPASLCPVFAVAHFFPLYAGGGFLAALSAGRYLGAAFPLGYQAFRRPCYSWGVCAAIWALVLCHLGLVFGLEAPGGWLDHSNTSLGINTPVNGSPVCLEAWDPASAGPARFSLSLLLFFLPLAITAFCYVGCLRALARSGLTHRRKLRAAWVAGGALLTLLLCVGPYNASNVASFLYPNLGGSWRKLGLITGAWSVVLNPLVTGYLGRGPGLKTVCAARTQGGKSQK
# Procedure: CHO cell strain (No. 104) which have had expressed human GPR40 was diluted to contain 3×10^4 cells/100 μL, and added to a Black walled 96-well plate (Costar) at 100 μL/well, and incubated overnight in CO2 incubator. Change of intracellular calcium concentration was measured with FLIPR (Molecular Device). The method is as follows. 50 μg of Fluo-3AM (DOJIN) was dissolved in 21 μL of DMSO (DOJIN), and the same amount of 20% pluronic acid (Molecular Probes) was further added thereto, and the mixture was mixed. The mixture was added to 10.6 mL of an assay buffer [prepared by adding 10 mL of solution which was produced by adding 20 mL of 1 M HEPES (pH 7.4) (DOJIN) to 1 L of HBSS (Invitrogen), dissolving 710 mg of probenecid (Sigma) in 5 mL of 1N NaOH, and further adding 5 mL of the above-mentioned HBSS/HEPES solution thereto and mixing it.] containing 105 μL of fetal bovine serum, to give a fluorescent dye solution. The medium of the cell plate was removed, and immediately, the fluorescent dye solution was added at 100 μL/well, and incubated in CO2 incubator for 1 hour, allowing the fluorescent dye to be incorporated into the cells. The cells after incubation were washed with the above-mentioned assay buffer. The compound to be added to the cells was diluted with the assay buffer to each concentration, added to the plate for the test sample. After conducting the above-mentioned pretreatment, intracellular calcium concentration change after adding the compound was measured in FLIPR to investigate the agonist action. By dose-response curve with the change of fluorescence intensity value at 30 seconds after reaction initiation, EC50 value was calculated.
# PPARδ-RXRα heterodimer = target: T3, PPARδ-RXRα heterodimer (Homo sapiens, UniProt Q03181); test: PPARδ-RXRα heterodimer ligand activity (luciferase reporter, transfected COS-1 cells); format: cell-based; settings: luciferase activity at 10 nM test compound relative to non-administration group as 1
# T3 construct: expressed in transfected cells; host or cells: COS-1 (transient; pMCMVneo-hPPARδ + pMCMVneo-hRXRα)
# T3 sequence (Q03181 1-441): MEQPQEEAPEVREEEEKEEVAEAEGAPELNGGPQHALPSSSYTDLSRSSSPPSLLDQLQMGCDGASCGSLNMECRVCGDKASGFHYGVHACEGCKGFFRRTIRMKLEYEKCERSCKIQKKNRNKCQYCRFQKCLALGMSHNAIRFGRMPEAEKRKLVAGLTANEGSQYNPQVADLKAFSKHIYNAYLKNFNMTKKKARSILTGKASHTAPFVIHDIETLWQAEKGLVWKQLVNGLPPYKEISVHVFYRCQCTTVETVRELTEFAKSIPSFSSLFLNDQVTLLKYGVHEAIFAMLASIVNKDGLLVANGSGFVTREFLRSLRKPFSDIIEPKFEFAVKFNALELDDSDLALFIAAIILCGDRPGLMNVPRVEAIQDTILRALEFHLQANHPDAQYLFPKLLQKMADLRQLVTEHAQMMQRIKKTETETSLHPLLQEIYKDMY
# T3 sequence (P19793 1-462 partner): T1 sequence (P19793 1-462 partner)
# Procedure: as §1, with “Example 9a,” for “Example 12a,”, “0.1% fatty acid-free bovine serum albumin (BSA)” for “0.1% BSA (fatty acid-free)”, “incubated under the conditions of” for “incubated at”, “C. and 5% CO2” for “C. in a carbon dioxide gas incubator”, “of PicaGene.” for “of PicaGene”
# The fold induction was calculated from the luciferase activity for addition of each 10 nM of the test compound relative to the luciferase activity of the test compound non-administration group as 1. Results are shown in [Table 2].
# as §2, with “ml, and the plate was incubated under” for “ml, and incubated under”, “μg of pMCMVneo-hPPARδ (obtained in” for “μg of pMCMVneo-hPPARα (obtained in”, “Reference Example 3a), 2.5 μg” for “Reference Example 11a), 2.5 μg”, “USA). To the COS-1 cell” for “USA). To COS-1 cell”
SMILES,melting point,fold induction at 0.01 µM (PPARα-RXRα heterodimer),EC50 (human GPR40),fold induction at 0.01 µM (PPARδ-RXRα heterodimer)
"Cc1oc(-c2ccc(F)cc2)cc1COc1cccc(CSCC(=O)O)c1 [Example 6(1), [(3-{[5-(4-Fluorophenyl)-2-methyl-3-furyl]methoxy}benzyl)thio]acetic acid]",120 to 122 °C,8.9,–,–
"COc1cc(OCc2cc(-c3ccc(C(F)(F)F)cc3)oc2C)ccc1CCC(=O)O [Example 6(6), 3-[2-Methoxy-4-({2-methyl-5-[4-(trifluoromethyl)phenyl]-3-furyl}methoxy)phenyl]propionic acid]",159 to 160 °C,–,160 nM,6.6
"CC(C)c1oc(-c2ccc(C(F)(F)F)cc2)cc1C(=O)Nc1cccc(CSCC(=O)O)c1 [Example 2(1), {[3-({2-Isopropyl-5-[4-(trifluoromethyl)phenyl]-3-furoyl}amino)benzyl]thio}acetic acid]",–,10.9,–,–
"Cc1cc(OCc2cc(-c3ccc(C(F)(F)F)cc3)oc2C)ccc1CCC(=O)O [Example 6(4), 3-[2-Methyl-4-({2-methyl-5-[4-(trifluoromethyl)phenyl]-3-furyl}methoxy)phenyl]propionic acid]",140 to 141 °C,–,180 nM,7.4
"CCc1oc(-c2ccc(C(F)(F)F)cc2)cc1CCCOc1cccc(CC(=O)O)c1 [Example 6(26), [3-(3-{2-Ethyl-5-[4-(trifluoromethyl)phenyl]-3-furyl}propoxy)phenyl]acetic acid]",113 to 114 °C,–,–,5.6
"Cc1oc(-c2ccc(C(F)(F)F)cc2)cc1COc1cccc(CSCC(=O)O)c1 [Example 6(2), {[3-({2-Methyl-5-[4-(trifluoromethyl)phenyl]-3-furyl}methoxy)benzyl]thio}acetic acid]",–,9.2,–,–
CCc1oc(-c2ccc(C(F)(F)F)cc2)cc1COc1cccc(CSCC(=O)O)c1 [Example 5(5)],–,10.1,–,–

# The next lines start with the values.
melting point,fold induction at 0.01 µM (PPARα-RXRα heterodimer),EC50 (human GPR40),fold induction at 0.01 µM (PPARδ-RXRα heterodimer),SMILES
125 to 126 °C,–,–,6.8,"Cc1cc(OCCCc2cc(-c3ccc(C(F)(F)F)cc3)oc2C)ccc1CCC(=O)O [Example 6(24), 3-[2-Methyl-4-(3-{2-methyl-5-[4-(trifluoromethyl)phenyl]-3-furyl}propoxy)phenyl]propionic acid]"
95 to 97 °C,–,–,6.7,"CCc1oc(-c2ccc(C(F)(F)F)cc2)cc1COc1ccc(CCC(=O)O)c(C)c1 [Example 5(9), 3-[4-({2-Ethyl-5-[4-(trifluoromethyl)phenyl]-3-furyl}methoxy)-2-methylphenyl]propionic acid]"
–,10.2,–,–,"Cc1oc(-c2ccc(F)cc2)cc1C(=O)Nc1cccc(CSCC(=O)O)c1 [Example 1, [(3{[5-(4-Fluorophenyl)-2-methyl-3-furoyl]amino}benzyl)thio]acetic acid]"
–,9.3,–,–,"Cc1oc(-c2ccc(F)cc2)cc1COc1cccc(CSC(C)(C)C(=O)O)c1 [Example 6, 2-[(3-{[5-(4-Fluorophenyl)-2-methyl-3-furyl]methoxy}benzyl)thio]-2-methylpropionic acid]"
